Laboratory results from ChEMBL document CHEMBL2016493, “Design, synthesis, synergistic antimicrobial activity and cytotoxicity of 4-aryl substituted 3,4-dihydropyrimidinones of curcumin” (Bioorg Med Chem Lett, 2012).
Activity calls are given as the source filed them. The calls are words filed in the database; no cut-off is given here.

Assays:
Aspergillus niger [1] = test: Antifungal activity against Aspergillus niger MTCC 1108 at 20 uM/ml after 48 hrs by paper disc diffusion method; type: functional
Escherichia coli [2] = test: Antibacterial activity against Escherichia coli ATCC 35218 at 20 uM/ml after 24 hrs by kirby-bauer method; type: functional; details: ATCC 35218, 24 h, read-out: IZ
Aspergillus niger [3] = test: Antifungal activity against Aspergillus niger MTCC 1108 at 160 uM/ml after 48 hrs by paper disc diffusion method; type: functional; details: for zone of inhibition at 160 µM: MTCC 1108, 48 h, read-out: IZ
Pseudomonas aeruginosa [4] = test: Antibacterial activity against Pseudomonas aeruginosa ATCC 15499 at 80 uM/ml after 24 hrs by kirby-bauer method; type: functional; details: ATCC 15499, 24 h, read-out: IZ
Aspergillus flavus [5] = test: Antifungal activity against Aspergillus flavus MTCC 1021 at 20 uM/ml after 48 hrs by paper disc diffusion method; type: functional
Trichoderma viride [6] = test: Antifungal activity against Trichoderma viride MTCC 1107 at 160 uM/ml after 48 hrs by paper disc diffusion method; type: functional; details: MTCC 1107, 48 h, read-out: IZ
Trichoderma viride [7] = test: Antifungal activity against Trichoderma viride MTCC 1107 at 40 uM/ml after 48 hrs by paper disc diffusion method; type: functional; details: for zone of inhibition: MTCC 1107, 48 h, read-out: IZ
Pseudomonas aeruginosa [8] = test: Antibacterial activity against Pseudomonas aeruginosa ATCC 15499 at 40 uM/ml after 24 hrs by kirby-bauer method; type: functional; details: ATCC 15499, 24 h, read-out: IZ
Aspergillus niger [9] = test: Antifungal activity against Aspergillus niger MTCC 1108 at 80 uM/ml after 48 hrs by paper disc diffusion method; type: functional; details: MTCC 1108, 48 h, read-out: IZ
Escherichia coli [10] = test: Antibacterial activity against Escherichia coli ATCC 35218 at 40 uM/ml after 24 hrs by kirby-bauer method; type: functional; details: ATCC 35218, 24 h, read-out: IZ
Curvularia lunata [11] = test: Antifungal activity against Curvularia lunata MTCC 581 at 80 uM/ml after 48 hrs by paper disc diffusion method; type: functional; details: MTCC 581, 48 h, read-out: IZ
Aspergillus flavus [12] = test: Antifungal activity against Aspergillus flavus MTCC 1021 at 160 uM/ml after 48 hrs by paper disc diffusion method; type: functional; details: for zone of inhibition at 160 µM: MTCC 1021, 48 h, read-out: IZ
Escherichia coli [13] = test: Antibacterial activity against Escherichia coli ATCC 35218 at 80 uM/ml after 24 hrs by kirby-bauer method; type: functional; details: ATCC 35218, 24 h, read-out: IZ
Curvularia lunata [14] = test: Antifungal activity against Curvularia lunata MTCC 581 at 20 uM/ml after 48 hrs by paper disc diffusion method; type: functional; details: for zone of inhibition at 20 µM: MTCC 581, 48 h, read-out: IZ
Curvularia lunata [15] = test: Antifungal activity against Curvularia lunata MTCC 581 at 40 uM/ml after 48 hrs by paper disc diffusion method; type: functional; details: for zone of inhibition at 40 µM: MTCC 581, 48 h, read-out: IZ
Staphylococcus aureus [16] = test: Antibacterial activity against Staphylococcus aureus ATCC 11632 at 160 uM/ml after 24 hrs by kirby-bauer method; type: functional
Pseudomonas aeruginosa [17] = test: Antibacterial activity against Pseudomonas aeruginosa ATCC 15499 at 20 uM/ml after 24 hrs by kirby-bauer method; type: functional; details: ATCC 15499, 24 h, read-out: IZ
Aspergillus flavus [18] = test: Antifungal activity against Aspergillus flavus MTCC 1021 at 40 uM/ml after 48 hrs by paper disc diffusion method; type: functional
Aspergillus flavus [19] = test: Antifungal activity against Aspergillus flavus MTCC 1021 at 80 uM/ml after 48 hrs by paper disc diffusion method; type: functional
[20] = test system: Burkholderia pseudomallei; test: Antibacterial activity against Burkholderia pseudomallei NTCC 10274 at 80 uM/ml after 24 hrs by kirby-bauer method; type: functional; details: NTCC 10274, 24 h, read-out: IZ
[21] = test system: Burkholderia pseudomallei; test: Antibacterial activity against Burkholderia pseudomallei NTCC 10274 at 20 uM/ml after 24 hrs by kirby-bauer method; type: functional
Trichoderma viride [22] = test: Antifungal activity against Trichoderma viride MTCC 1107 at 80 uM/ml after 48 hrs by paper disc diffusion method; type: functional; details: MTCC 1107, 48 h, read-out: IZ
[23] = test system: Burkholderia pseudomallei; test: Antibacterial activity against Burkholderia pseudomallei NTCC 10274 at 160 uM/ml after 24 hrs by kirby-bauer method; type: functional; details: NTCC 10274, 24 h, read-out: IZ
Curvularia lunata [24] = test: Antifungal activity against Curvularia lunata MTCC 581 at 160 uM/ml after 48 hrs by paper disc diffusion method; type: functional; details: MTCC 581, 48 h, read-out: IZ
Aspergillus niger [25] = test: Antifungal activity against Aspergillus niger MTCC 1108 at 40 uM/ml after 48 hrs by paper disc diffusion method; type: functional
Salmonella typhimurium [26] = test: Antibacterial activity against Salmonella typhimurium ATCC 23564 at 160 uM/ml after 24 hrs by kirby-bauer method; type: functional; details: for inhibition zone (IZ): Salmonella enterica subsp. enterica serovar Typhimurium
Trichoderma viride [27] = test: Antifungal activity against Trichoderma viride MTCC 1107 at 20 uM/ml after 48 hrs by paper disc diffusion method; type: functional; details: for zone of inhibition at 20 µM: MTCC 1107, 48 h, read-out: IZ
Escherichia coli [28] = test: Antibacterial activity against Escherichia coli ATCC 35218 at 160 uM/ml after 24 hrs by kirby-bauer method; type: functional; details: ATCC 35218, 24 h, read-out: IZ
QG-56 = test: Cytotoxicity against human QG56 cells after 48 hrs by MTT assay; type: functional, cell-based
Pseudomonas aeruginosa [29] = test: Antibacterial activity against Pseudomonas aeruginosa ATCC 15499 at 160 uM/ml after 24 hrs by kirby-bauer method; type: functional; details: ATCC 15499, 24 h, read-out: IZ
[30] = test system: Burkholderia pseudomallei; test: Antibacterial activity against Burkholderia pseudomallei NTCC 10274 at 40 uM/ml after 24 hrs by kirby-bauer method; type: functional; details: for zone of inhibition at 40 µM: NTCC 10274, 24 h, read-out: IZ
Staphylococcus aureus [31] = test: Antibacterial activity against Staphylococcus aureus ATCC 11632 at 40 uM/ml after 24 hrs by kirby-bauer method; type: functional
Staphylococcus aureus [32] = test: Antibacterial activity against Staphylococcus aureus ATCC 11632 at 20 uM/ml after 24 hrs by kirby-bauer method; type: functional
Salmonella typhimurium [33] = test: Antibacterial activity against Salmonella typhimurium ATCC 23564 at 20 uM/ml after 24 hrs by kirby-bauer method; type: functional; details: Salmonella enterica subsp. enterica serovar Typhimurium
Salmonella typhimurium [34] = test: Antibacterial activity against Salmonella typhimurium ATCC 23564 at 40 uM/ml after 24 hrs by kirby-bauer method; type: functional; details: Salmonella enterica subsp. enterica serovar Typhimurium
Salmonella typhimurium [35] = test: Antibacterial activity against Salmonella typhimurium ATCC 23564 at 80 uM/ml after 24 hrs by kirby-bauer method; type: functional; details: Salmonella enterica subsp. enterica serovar Typhimurium
Staphylococcus aureus [36] = test: Antibacterial activity against Staphylococcus aureus ATCC 11632 at 80 uM/ml after 24 hrs by kirby-bauer method; type: functional; details: ATCC 11632, 24 h, read-out: IZ

Structure (SMILES)	inhibition zone (IZ) (Aspergillus niger [1])	zone of inhibition at 20 µM (Escherichia coli [2])	zone of inhibition at 160 µM (Aspergillus niger [3])	zone of inhibition at 80 µM (Pseudomonas aeruginosa [4])	inhibition zone (IZ) (Aspergillus flavus [5])	zone of inhibition at 160 µM (Trichoderma viride [6])	zone of inhibition at 40 µM (Pseudomonas aeruginosa [8])	zone of inhibition at 40 µM (Escherichia coli [10])	IC50 (HCT-116)	zone of inhibition at 80 µM (Curvularia lunata [11])	zone of inhibition at 80 µM (Escherichia coli [13])	IC50 (HepG2)	zone of inhibition at 20 µM (Pseudomonas aeruginosa [17])	zone of inhibition at 80 µM [20]	zone of inhibition at 80 µM (Trichoderma viride [22])	zone of inhibition at 160 µM [23]	zone of inhibition at 160 µM (Curvularia lunata [24])	zone of inhibition at 160 µM (Escherichia coli [28])	IC50 (QG-56)	zone of inhibition at 160 µM (Pseudomonas aeruginosa [29])	also measured
COc1cc(/C=C/C(=O)C2=C(/C=C/c3ccc(O)c(OC)c3)NC(=S)NC2c2ccccc2)ccc1O (centres undefined)	inactive	12 mm	16 mm	17 mm	inactive	24 mm	14 mm	14 mm	100 uM/ml	23 mm	18 mm	50 uM/ml	12 mm	16 mm	21 mm	18 mm	26 mm	21 mm	50 uM/ml	18 mm	zone of inhibition (Trichoderma viride [7]): 21 mm; zone of inhibition at 80 µM (Aspergillus niger [9]): 14 mm; zone of inhibition at 160 µM (Aspergillus flavus [12]): 9 mm; zone of inhibition at 20 µM (Curvularia lunata [14]): 18 mm; zone of inhibition at 40 µM (Curvularia lunata [15]): 21 mm; inhibition zone (IZ) (Staphylococcus aureus [16]): inactive; inhibition zone (IZ) (Aspergillus flavus [18]): inactive; inhibition zone (IZ) (Aspergillus flavus [19]): inactive; zone of inhibition at 20 µM ([21]; NTCC 10274, 24 h, read-out: IZ): 11 mm; inhibition zone (IZ) (Aspergillus niger [25]): inactive; inhibition zone (IZ) (Salmonella typhimurium [26]): inactive; zone of inhibition at 20 µM (Trichoderma viride [27]): 18 mm; zone of inhibition at 40 µM [30]: 13 mm
COc1cc(/C=C/C(=O)C2=C(/C=C/c3ccc(O)c(OC)c3)NC(=O)NC2c2ccccc2O)ccc1O (centres undefined)	inactive	15 mm	13 mm	21 mm	inactive	11 mm	19 mm	18 mm	100 uM/ml	21 mm	19 mm	100 uM/ml	18 mm	13 mm	9 mm	19 mm	23 mm	22 mm	100 uM/ml	24 mm	inhibition zone (IZ) (Trichoderma viride [7]): inactive; zone of inhibition at 80 µM (Aspergillus niger [9]): 11 mm; zone of inhibition at 160 µM (Aspergillus flavus [12]): 9 mm; zone of inhibition at 20 µM (Curvularia lunata [14]): 17 mm; zone of inhibition at 40 µM (Curvularia lunata [15]): 20 mm; inhibition zone (IZ) (Staphylococcus aureus [16]): inactive; inhibition zone (IZ) (Aspergillus flavus [18]): inactive; inhibition zone (IZ) (Aspergillus flavus [19]): inactive; inhibition zone (IZ) [21]: inactive; zone of inhibition at 40 µM (Aspergillus niger [25]; MTCC 1108, 48 h, read-out: IZ): 9 mm; inhibition zone (IZ) (Salmonella typhimurium [26]): inactive; inhibition zone (IZ) (Trichoderma viride [27]): inactive; zone of inhibition at 40 µM [30]: 11 mm
COc1cc(/C=C/C(=O)C2=C(/C=C/c3ccc(O)c(OC)c3)NC(=O)NC2c2ccc([N+](=O)[O-])cc2)ccc1O (centres undefined)		12 mm		18 mm		21 mm	14 mm	15 mm	50 uM/ml	9 mm	16 mm	100 uM/ml	9 mm	10 mm	21 mm	12 mm	11 mm	18 mm	100 uM/ml	19 mm	inhibition zone (IZ) (Staphylococcus aureus [31]): inactive; inhibition zone (IZ) (Staphylococcus aureus [32]): inactive; inhibition zone (IZ) (Aspergillus niger [3]): inactive; zone of inhibition (Trichoderma viride [7]): 19 mm; inhibition zone (IZ) (Salmonella typhimurium [33]): inactive; inhibition zone (IZ) (Salmonella typhimurium [34]): inactive; inhibition zone (IZ) (Aspergillus flavus [12]): inactive; inhibition zone (IZ) (Curvularia lunata [14]): inactive; inhibition zone (IZ) (Curvularia lunata [15]): inactive; zone of inhibition at 160 µM (Staphylococcus aureus [16]; ATCC 11632, 24 h, read-out: IZ): 11 mm; inhibition zone (IZ) (Salmonella typhimurium [35]): inactive; inhibition zone (IZ) [21]: inactive; zone of inhibition at 160 µM (Salmonella typhimurium [26]; Salmonella enterica, ATCC 23564, 24 h, read-out: IZ): 10 mm; zone of inhibition at 20 µM (Trichoderma viride [27]): 17 mm; zone of inhibition at 80 µM (Staphylococcus aureus [36]): 10 mm; inhibition zone (IZ) [30]: inactive
